Results on one molecule are retold here after patent US20220184052A1, “COMPOSITION COMPRISING FEXOFENADINE” (Cellix Bio Private Limited, priority 2020, published 2022).

The structures appear in SMILES notation. Structures can show the parent of a compound that is named as a salt.

The data set can be described thus: Drug-excipient compatibility study, 40° C./75% RH-4 W (% degradants). The data set is classed as physicochemical.

Regarding `CC(C)(C(=O)O)c1ccc(C(O)CCCN2CCC(C(O)(c3ccccc3)c3ccccc3)CC2)cc1` (stereo not shown) [API, Fexofenadine HCl], the “% Total” value came out at 0.11% (40° C./75% RH-4 W) and 0.09% (Initial). Further, the Description entry (40° C./75% RH-4 W) is recorded as “Clear” and the Description result (Initial) is “Clear”.
